Experimental data from ChEMBL document CHEMBL1201862, “PubChem BioAssay data set” (2004).
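Compound exposure: 48 hours, 5 concentrations, 96-well plates. Here, GI50 denotes the concentration required for 50% inhibition of growth.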 Active and inactive are the calls of the source. No stated cut-off is given here; in the data, active = GI50 up to about 1.1 µM and inactive = higher.

Columns and labels:
Assay in all cases: NCI-60 cell line screen, 48 h
[1] = tested on: CAKI-1
[2] = tested on: COLO 205
[3] = tested on: DU-145
[4] = tested on: EKVX
[5] = tested on: HOP-92
[6] = tested on: LOX IMVI
[7] = tested on: MDA-N
[8] = tested on: MOLT-4
[9] = tested on: NCI-H23
[10] = tested on: NCI/ADR-RES
[11] = tested on: OVCAR-8
[12] = tested on: PC-3
[13] = tested on: RPMI-8226
[14] = tested on: SF-295
[15] = tested on: SF-539
[16] = tested on: SK-MEL-28
[17] = tested on: SK-MEL-5
[18] = tested on: SN12C
[19] = tested on: SR
[20] = tested on: T47D

Cn1c(Sc2ccc(-c3cccnc3)n2C)ccc1-c1cccnc1
GI50 [1]: 19.1 µM (inactive)
GI50 [2]: 20 µM (inactive)
GI50 [3]: 18.1 µM (inactive)
GI50 [4]: 24 µM (inactive)
GI50 [5]: 12.9 µM (inactive)
GI50 [6]: 3.73 µM (inactive)
GI50 [7]: 8.57 µM (inactive)
GI50 [8]: 0.353 µM (active)
GI50 [9]: 16.7 µM (inactive)
GI50 [10]: 21.8 µM (inactive)
GI50 [11]: 18.1 µM (inactive)
GI50 [12]: 15.5 µM (inactive)
GI50 [13]: 6.65 µM (inactive)
GI50 [14]: 16.2 µM (inactive)
GI50 [15]: 20.7 µM (inactive)
GI50 [16]: 10.3 µM (inactive)
GI50 [17]: 16.4 µM (inactive)
GI50 [18]: 16.8 µM (inactive)
GI50 [19]: 2.13 µM (inactive)
GI50 [20]: 16.7 µM (inactive)

N=C(N)SCc1ccc(Cl)c2ccccc12.O=[N+]([O-])c1c(O)c(Cl)cc(Cl)c1Cl
GI50 [1]: 5.57 µM (inactive)
GI50 [2]: 10.6 µM (inactive)
GI50 [3]: 14 µM (inactive)
GI50 [4]: 7.03 µM (inactive)
GI50 [5]: 5.89 µM (inactive)
GI50 [6]: 14.4 µM (inactive)
GI50 [7]: 11.1 µM (inactive)
GI50 [8]: 5.09 µM (inactive)
GI50 [9]: 12.9 µM (inactive)
GI50 [10]: 17.9 µM (inactive)
GI50 [11]: 17.7 µM (inactive)
GI50 [12]: 11.9 µM (inactive)
GI50 [13]: 2.64 µM (inactive)
GI50 [14]: 11.6 µM (inactive)
GI50 [15]: 8.65 µM (inactive)
GI50 [16]: 14.1 µM (inactive)
GI50 [17]: 12.6 µM (inactive)
GI50 [18]: 11.3 µM (inactive)
GI50 [19]: 5.42 µM (inactive)
GI50 [20]: 4.19 µM (inactive)

CCOC(=O)c1cn2c(n1)sc1cc(F)ccc12
GI50 [1]: > 100 µM (inactive)
GI50 [2]: > 100 µM (inactive)
GI50 [3]: > 100 µM (inactive)
GI50 [4]: > 100 µM (inactive)
GI50 [5]: > 100 µM (inactive)
GI50 [6]: 80.7 µM (inactive)
GI50 [7]: 19.4 µM (inactive)
GI50 [8]: > 100 µM (inactive)
GI50 [9]: > 100 µM (inactive)
GI50 [10]: > 100 µM (inactive)
GI50 [11]: > 100 µM (inactive)
GI50 [12]: > 100 µM (inactive)
GI50 [13]: > 100 µM (inactive)
GI50 [14]: 74.8 µM (inactive)
GI50 [15]: 99.5 µM (inactive)
GI50 [16]: > 100 µM (inactive)
GI50 [17]: > 100 µM (inactive)
GI50 [18]: > 100 µM (inactive)
GI50 [19]: 16.1 µM (inactive)
GI50 [20]: > 100 µM (inactive)

CN(CCNC(=O)c1cn(C)c2c1ccc1cc(Cl)c(Cl)cc12)CCNC(=O)c1cn(C)c2c1ccc1cc(Cl)c(Cl)cc12
GI50 [1]: 3.84 µM (inactive)
GI50 [2]: 1.64 µM (inactive)
GI50 [3]: 1.82 µM (inactive)
GI50 [4]: 2.7 µM (inactive)
GI50 [5]: 2.17 µM (inactive)
GI50 [6]: 1.74 µM (inactive)
GI50 [7]: 2.29 µM (inactive)
GI50 [8]: 0.5 µM (active)
GI50 [9]: 5.22 µM (inactive)
GI50 [10]: 2.26 µM (inactive)
GI50 [11]: 1.79 µM (inactive)
GI50 [12]: 1.7 µM (inactive)
GI50 [13]: 2.65 µM (inactive)
GI50 [14]: 2.22 µM (inactive)
GI50 [15]: 2.61 µM (inactive)
GI50 [16]: 1.73 µM (inactive)
GI50 [17]: 12.5 µM (inactive)
GI50 [18]: 1.74 µM (inactive)
GI50 [19]: 0.56 µM (active)
GI50 [20]: 1.93 µM (inactive)

O=P1(NCCCl)OCCC(OO)N1CCCl (stereo not given)
GI50 [1]: 18.3 µM (inactive)
GI50 [2]: 33.1 µM (inactive)
GI50 [3]: 54 µM (inactive)
GI50 [4]: > 100 µM (inactive)
GI50 [5]: 16.8 µM (inactive)
GI50 [6]: 1.82 µM (inactive)
GI50 [7]: 29.3 µM (inactive)
GI50 [8]: > 36.9 µM (inactive)
GI50 [9]: 28.4 µM (inactive)
GI50 [10]: 28.7 µM (inactive)
GI50 [11]: 46.1 µM (inactive)
GI50 [12]: 68.5 µM (inactive)
GI50 [13]: 7.03 µM (inactive)
GI50 [14]: 1.72 µM (inactive)
GI50 [15]: 16.9 µM (inactive)
GI50 [16]: 18.9 µM (inactive)
GI50 [17]: 93.5 µM (inactive)
GI50 [18]: 37.4 µM (inactive)
GI50 [19]: > 100 µM (inactive)
GI50 [20]: 0.316 µM (active)

O=C1/C(=C/c2ccc(Cl)cc2)CCC1CN1CCOCC1 (stereo not given)
GI50 [1]: 4.37 µM (inactive)
GI50 [2]: 7.8 µM (inactive)
GI50 [3]: 11.5 µM (inactive)
GI50 [4]: 12.2 µM (inactive)
GI50 [5]: 3.96 µM (inactive)
GI50 [6]: 2.28 µM (inactive)
GI50 [7]: 6.46 µM (inactive)
GI50 [8]: 1.12 µM (inactive)
GI50 [9]: 9.14 µM (inactive)
GI50 [10]: 4.88 µM (inactive)
GI50 [11]: 6.68 µM (inactive)
GI50 [12]: 6.19 µM (inactive)
GI50 [13]: 0.818 µM (active)
GI50 [14]: 17.5 µM (inactive)
GI50 [15]: 10.6 µM (inactive)
GI50 [16]: 8 µM (inactive)
GI50 [17]: 12.5 µM (inactive)
GI50 [18]: 3.78 µM (inactive)
GI50 [19]: 0.687 µM (active)
GI50 [20]: 0.678 µM (active)

CC(=O)OCC1=C(C(=O)O)N2C(=O)C(NC(=O)CSc3ccncc3)C2SC1 (stereo not given)
GI50 [1]: > 100 µM (inactive)
GI50 [2]: > 100 µM (inactive)
GI50 [3]: > 100 µM (inactive)
GI50 [4]: > 100 µM (inactive)
GI50 [5]: > 100 µM (inactive)
GI50 [6]: > 100 µM (inactive)
GI50 [7]: > 100 µM (inactive)
GI50 [8]: > 100 µM (inactive)
GI50 [9]: > 100 µM (inactive)
GI50 [10]: > 100 µM (inactive)
GI50 [11]: > 100 µM (inactive)
GI50 [12]: > 100 µM (inactive)
GI50 [13]: > 100 µM (inactive)
GI50 [14]: > 100 µM (inactive)
GI50 [15]: > 100 µM (inactive)
GI50 [16]: > 100 µM (inactive)
GI50 [17]: > 100 µM (inactive)
GI50 [18]: > 100 µM (inactive)
GI50 [19]: > 100 µM (inactive)
GI50 [20]: > 100 µM (inactive)

CC(C)=CCC/C(=C/CC/C(=C\CCc1ccoc1)C(=O)O)C(=O)O
GI50 [1]: > 100 µM (inactive)
GI50 [2]: > 100 µM (inactive)
GI50 [3]: > 100 µM (inactive)
GI50 [4]: > 100 µM (inactive)
GI50 [5]: > 100 µM (inactive)
GI50 [6]: > 100 µM (inactive)
GI50 [7]: > 100 µM (inactive)
GI50 [8]: > 100 µM (inactive)
GI50 [9]: > 100 µM (inactive)
GI50 [10]: > 100 µM (inactive)
GI50 [11]: > 100 µM (inactive)
GI50 [12]: > 100 µM (inactive)
GI50 [13]: > 100 µM (inactive)
GI50 [14]: > 100 µM (inactive)
GI50 [15]: > 100 µM (inactive)
GI50 [16]: > 100 µM (inactive)
GI50 [17]: > 100 µM (inactive)
GI50 [18]: > 100 µM (inactive)
GI50 [19]: > 10 µM (inactive)
GI50 [20]: > 100 µM (inactive)

C=C(CN(C)C)C(=O)c1ccc(OC)cc1
GI50 [1]: 1.5 µM (inactive)
GI50 [2]: 0.326 µM (active)
GI50 [3]: 4.97 µM (inactive)
GI50 [4]: 18.7 µM (inactive)
GI50 [5]: 1.32 µM (inactive)
GI50 [6]: 4.49 µM (inactive)
GI50 [7]: 7.46 µM (inactive)
GI50 [8]: 0.52 µM (active)
GI50 [9]: 7.4 µM (inactive)
GI50 [10]: 8.32 µM (inactive)
GI50 [11]: 1.07 µM (active)
GI50 [12]: 15.2 µM (inactive)
GI50 [13]: 2.11 µM (inactive)
GI50 [14]: 28.5 µM (inactive)
GI50 [15]: 4.1 µM (inactive)
GI50 [16]: 3.49 µM (inactive)
GI50 [17]: 8.24 µM (inactive)
GI50 [18]: 2.48 µM (inactive)
GI50 [19]: 1.05 µM (active)
GI50 [20]: 0.881 µM (active)

CNC=O
GI50 [1]: > 10000 µM (inactive)
GI50 [2]: > 10000 µM (inactive)
GI50 [3]: > 10000 µM (inactive)
GI50 [4]: > 10000 µM (inactive)
GI50 [5]: > 9530 µM (inactive)
GI50 [6]: > 9180 µM (inactive)
GI50 [7]: > 10000 µM (inactive)
GI50 [8]: > 10000 µM (inactive)
GI50 [9]: > 10000 µM (inactive)
GI50 [10]: > 10000 µM (inactive)
GI50 [11]: > 10000 µM (inactive)
GI50 [12]: > 10000 µM (inactive)
GI50 [13]: > 10000 µM (inactive)
GI50 [14]: > 9510 µM (inactive)
GI50 [15]: > 10000 µM (inactive)
GI50 [16]: > 10000 µM (inactive)
GI50 [17]: > 10000 µM (inactive)
GI50 [18]: > 7740 µM (inactive)
GI50 [19]: > 10000 µM (inactive)
GI50 [20]: > 10000 µM (inactive)
